Square brackets hold non-standard residues; d marks the D form. Peptide text beside a SMILES is read from it. * marks the point of attachment. NMeVal(N-(CH2)3COOH) = CC(C)[C@@H](C(=O)*)N(C)CCCC(=O)O; Dolaproine = CO[C@@H]([C@@H]1CCCN1)[C@@H](C)C(=O)O; Dil = CC[C@H](C)[C@H](NC)[C@@H](CC(=O)O)OC; X5 = C[C@@H](N*)[C@@H](O)c1ccccc1; NMeV = CN[C@H](C(=O)O)C(C)C; X1 = O=C(NN*)c1ccccc1; OBn = c1ccc(CO*)cc1
Columns and labels:
[1] = Cell permeability, flux assay using Caco-2 cells; type: in vitro ADME; settings: human, basal to apical, 2 hours incubation
Description: (§1) B-5. Determination of Cell Permeability:
(§2) The cell permeability of a substance can be analyzed by means of in vitro tests in a flux assay using Caco-2-cells [M. D. Troutman and D. R. Thakker, Pharm. Res. 20 (8), 1210-1224 (2003)]. For this analysis the cells were cultured on 24 membrane filter plates for 15 to 16 days. In order to determine permeation the test substance in question was given either apical (A) to a HEPES buffer or basal (B) on the cells and incubated for 2 hours. The samples were withdrawn after 0 and 2 hours from the cis and trans compartments. The samples were separated by means of HPLC (Agilent 1200, Böblingen, Germany) using reverse-phase columns. The HPLC system was coupled to a triple quadropol mass spectrometer API 4000 (Applied Biosystems Applera, Darmstadt, Germany) via a turbo ion spray. The permeability was evaluated by means of the Papp value which was calculated with the help of the formula published by Schwab et al. [D. Schwab et al., J. Med. Chem. 46, 1716-1725 (2003)]. A substance was classified as active if the ratio of Papp (B-a) to Papp (A-B) was >2 or <0.5.
(§3) The permeability from B to A [Papp^(B-A)] is particularly important for toxophores which are being released intracellular: The lower the permeability the longer the residence time of the substance in the cell after intracellular release and, consequently, the more time available for interaction with the biochemical target (here: tubulin).

[2] = tested on: human renal carcinoma cell line 786-0; assay: Anti-proliferative effect on renal cell carcinoma 786-0 cell line (MTT assay); type: cell-based; settings: 786-0 cells, incubation 48 to 96 hours, serum free medium or 2% FCS
Description: B-1. Determination of Anti-proliferative Effects of Renal Cell Carcinoma 786-0 Cell Line:
A defined number of cells of the human renal carcinoma cell line 786-0 were cultured in a 96 well micro titer plate in rich medium (2500 or 7.000 cells/well) and then incubated over night at 37° C./5% CO2. After 18 hours the seed medium was replaced by a serum free medium or medium with 2% FCS. The treatment began with measuring out the respective test substances in varying concentrations (10^−5 M to 10^−14 M). Incubation times of between 48 hours and 96 hours were chosen. The proliferation was determined by means of the MTT assay (ATCC, Manassas, Va., USA, catalogue no. 30-1010K). After completion of incubation period the MTT reagent was incubated with the cells for 4 hours before lysis occurred over night by measuring out the detergent. The created stain was detected at 570 nm. The proliferation of the cells, which were treated identically to the other cells but without the test substance was defined as the 100% value. The data obtained from this test represent triple determinations and at least two experiments had been carried out independently of each other.

HT-29 wt cell line = assay: Anti-proliferative effect on HT-29 wt cell line (MTT assay); type: cell-based, human; settings: HT-29 wt cells, incubation 48 to 96 hours, medium with 10% FCS
Description: B-2. Determination of Anti-proliferative Effects of HT-29 wt Cell Line:
After 18 hours the seed medium was replaced by a fresh medium with 10% FCS. The treatment started with measuring out the respective test substance. The dose-response curves were determined of the investigative substances with a concentration of 10^−5 M to 10^−14 M (1:10 dilutions). Incubation times of between 48 hours and 96 hours were chosen. The proliferation was detected by means of the MTT assay (ATCC, Manassas, Va., USA, catalogue no. 30-1010K). After completion of selected incubation period the MTT reagent was incubated with the cells for 4 hours before lysis occurred over night by measuring out the detergent. The created stain was detected at 570 nm. The proliferation of the cells, which were treated identically to the other cells but without the test substance, was defined as the 100% value. The data obtained from this test represent triple determinations and at least two experiments had been carried out independently of each other.

Caco-2-cells = assay: Cell permeability, flux assay using Caco-2 cells; type: in vitro ADME; settings: basal to apical, 2 hours incubation
Description: as §1, §2, §3

SMILES | Papp B→A at 2 h [1] | IC50 ([2]; Homo sapiens) | IC50 (HT-29 wt cell line; Homo sapiens) | Papp (B-A) (Caco-2-cells) | IC50 [2] | IC50 (HT-29 wt cell line)
CC[C@H](C)[C@@H]([C@@H](CC(=O)N1CCC[C@H]1[C@H](OC)[C@@H](C)C(=O)N[C@@H](Cc1c[nH]c2ccccc12)C(=O)OCc1ccccc1)OC)N(C)C(=O)[C@@H](NC(=O)[C@H](C(C)C)N(C)CCCC(=O)O)C(C)C [Example 8, N-(3-carboxypropyl)-N-methyl-L-valyl-N-[(3R,4S,5S)-1-{(2S)-2-[(1R,2R)-3-{[(2S)-1-(benzyloxy)-3-(1H-indol-3-yl)-1-oxopropane-2-yl]amino}-1-methoxy-2-methyl-3-oxopropyl]pyrrolidin-1-yl}-3-methoxy-5-methyl-1-oxoheptan-4-yl]-N-methyl-L-valinamide] ({NMeVal(N-(CH2)3COOH)}-V[Dil][Dolaproine]W-OBn) | 2.2 ×10⁻⁶ cm/s | 5.2 nM | 0.5 nM | – | – | –
CCCNC(=O)[C@]1(NC(=O)[C@H](C)[C@@H](OC)[C@@H]2CCCN2C(=O)C[C@@H](OC)[C@H]([C@@H](C)CC)N(C)C(=O)[C@@H](NC(=O)[C@H](C(C)C)N(C)CCCC(=O)O)C(C)C)C[C@@H]1c1ccccc1 [Example 11, N-(3-carboxypropyl)-N-methyl-L-valyl-N-[(3R,4S,5S)-3-methoxy-1-{(2S)-2-[(1R,2R)-1-methoxy-2-methyl-3-oxo-3-{[(1S,2R)-2-phenyl-1-(propylcarbamoyl)cyclopropyl]amino}propyl]pyrrolidin-1-yl}-5-methyl-1-oxoheptan-4-yl]-N-methyl-L-valinamide] | 1.1 ×10⁻⁶ cm/s | 6.7 nM | 0.8 nM | – | – | –
CC[C@H](C)[C@@H]([C@@H](CC(=O)N1CCC[C@H]1[C@H](OC)[C@@H](C)C(=O)N[C@@H](Cc1ccccc1)C(N)=O)OC)N(C)C(=O)[C@@H](NC(=O)[C@H](C(C)C)N(C)CCCC(=O)O)C(C)C [Example 13, N-(3-carboxypropyl)-N-methyl-L-valyl-N-[(3R,4S,5S)-1-{(2S)-2-[(1R,2R)-3-{[(2S)-1-amino-1-oxo-3-phenylpropan-2-yl]amino}-1-methoxy-2-methyl-3-oxopropyl]pyrrolidin-1-yl}-3-methoxy-5-methyl-1-oxoheptan-4-yl]-N-methyl-L-valinamide] ({NMeVal(N-(CH2)3COOH)}-V[Dil][Dolaproine]F-NH2) | 1 ×10⁻⁶ cm/s | 12.5 nM | 1 nM | – | – | –
CC[C@H](C)[C@@H]([C@@H](CC(=O)N1CCC[C@H]1[C@H](OC)[C@@H](C)C(=O)N[C@@H](Cc1ccccc1)C(=O)NNC(=O)c1ccccc1)OC)N(C)C(=O)[C@@H](NC(=O)[C@H](C(C)C)N(C)CCCC(=O)O)C(C)C [Example 14, (3R,4S,7S,10S)-3-(2-{(2S)-2-[(1R,2R)-3-{[(2S)-1-(2-benzoylhydrazino)-1-oxo-3-phenylpropane-2yl]amino}-1-methoxy-2-methyl-3-oxopropyl]pyrrolidin-1-yl}-2-oxoethyl)-4-[(2S)-butane-2-yl]-7,10-diisopropyl-5,11-dimethyl-6,9-dioxo-2-oxa-5,8,11-triazapentadecan-15-acid] ({NMeVal(N-(CH2)3COOH)}-V[Dil][Dolaproine]F-X1) | 0.3 ×10⁻⁶ cm/s | 59 nM | – | – | – | –
CC[C@H](C)[C@@H]([C@@H](CC(=O)N1CCC[C@H]1[C@H](OC)[C@@H](C)C(=O)N[C@@H](Cc1c[nH]c2ccccc12)C(N)=O)OC)N(C)C(=O)[C@@H](NC(=O)[C@H](C(C)C)N(C)CCCC(=O)O)C(C)C [Example 18, N-(3-carboxypropyl)-N-methyl-L-valyl-N-[(3R,4S,5S)-1-{(2S)-2-[(1R,2R)-3-{[(2S)-1-amino-3-(1H-indol-3-yl)-1-oxopropane2-yl]amino}-1-methoxy-2-methyl-3-oxopropyl]pyrrolidin-1-yl}-3-methoxy-5-methyl-1-oxoheptan-4-yl]-N-methyl-L-valinamide] ({NMeVal(N-(CH2)3COOH)}-V[Dil][Dolaproine]W-NH2) | 0.2 ×10⁻⁶ cm/s | 173 nM | 16 nM | – | – | –
CC[C@H](C)[C@@H]([C@@H](CC(=O)N1CCC[C@H]1[C@H](OC)[C@@H](C)C(=O)N[C@H](C)[C@@H](O)c1ccccc1)OC)N(C)C(=O)[C@@H](NC(=O)[C@@H](NC)C(C)C)C(C)C [MMAE, monomethylauristatin E, reference compound] (H-[NMeV]V[Dil][Dolaproine]-X5) | – | – | – | 8.9 ×10⁻⁶ cm/s | – | –
CC[C@H](C)[C@@H]([C@@H](CC(=O)N1CCC[C@H]1[C@H](OC)[C@@H](C)C(=O)N[C@@H](Cc1ccccc1)C(=O)O)OC)N(C)C(=O)[C@@H](NC(=O)[C@@H](NC)C(C)C)C(C)C [MMAF, Monomethylauristatin F, reference compound] (H-[NMeV]V[Dil][Dolaproine]F-OH) | – | – | – | 7.3 ×10⁻⁶ cm/s | 260 nM | 10 nM
